Experimental data taken from US20170252327A1, “Methods of Modulating Gastrointestinal Tract Flora Levels with Alkaline Phosphatase” (priority 2008, published 2017).

Columns and labels:
gut microbiota [1] = test: Restoration of gut flora after streptomycin treatment with or without cIAP (stool culture in LB media); format: in vivo, mice (C57BL/6)
Method: To address the role of intestinal alkaline phosphatase on the gastrointestinal tract flora of mammals, an experiment was performed in which five approximately six week old mice (C57BL/6) of each test group were treated with an antimicrobial drug, streptomycin, in the presence or absence of calf intestinal alkaline phosphatase (cIAP) (Sigma, St. Louis, Mo.). Both streptomycin (5 mg/ml) and cIAP (50 units/ml) were administered orally with the animal's drinking water. Individual stool samples of each group were cultured in LB media each day and analyzed for the presence/absence of gut flora. The gastrointestinal tract flora of mice before antibiotic treatment was considered as a baseline control for the normal gut flora (present in all samples).

[2] = test system: Gram-negative bacteria (mostly E. coli); test: Restoration of commensal Gram-negative gut flora in streptomycin-treated WT mice with or without cIAP (MacConkey agar); format: in vivo; conditions: streptomycin 5 mg/ml in drinking water
Method: Accordingly, experiments were performed in which groups of WT mice (n=10) were treated orally with the antibiotic streptomycin in the presence or absence of cIAP. Streptomycin (5 mg/ml) and cIAP (200 U/ml for cIAP^+ Group, n=5) or ‘vehicle for cIAP’ (20 μl/ml ‘vehicle for cIAP’ (50 mM KCl, 10 mM Tris-HCl (pH 8.2), 1 mM MgCl, 0.1 mM ZnCl2, and 50% glycerol) in drinking water for control cIAP^− Group, n=5) were administered in the animals' drinking water and fecal cultures were performed.
Individual stool samples were cultured each day on MacConkey agar media. […] After discontinuation of antibiotic treatment, the time of appearance (Day) of Gram-negative bacteria (mostly E. coli, occasionally P. mirabilis) in stool samples was recorded for each animal. The experiment was repeated six times, which raised the total number of animals in each group to 39 (n=39), however, duration of each experiment varied (7-35 days). Data was compiled from all six experiments and the number of animals with E. coli in each group on a specific day was recorded.

gut microbiota [3] = test: Restoration of gut flora after ampicillin treatment with or without cIAP (stool culture in LB media); format: in vivo, mice (C57BL/6)
Method: An experiment was performed in which five mice (C57BL/6) of each test group, approximately 6 weeks old, were treated with 1 mg/ml of the antimicrobial drug ampicillin, in the presence or absence of calf intestinal alkaline phosphatase (cIAP) (New England Biolabs, Ipswich, Mass.). Ampicillin was administered orally with the animal's drinking water at a concentration of 1 mg/ml, and 250 units of cIAP were administered twice daily as oral gavage. Individual stool samples of each group were cultured in LB media each day and analyzed for the presence/absence of the gut flora. The gut flora of mice before receiving the antibiotic was considered as a baseline control for normal gastrointestinal tract flora (present in all samples). […] Both treatment groups received ampicillin for 10 days.

IAP = test: Stool IAP activity in PTU-treated mice given T3 (hyperthyroid); format: in vivo
Source text: In WT mice, IAP (Akp3 isoform) is expressed at postnatal Day 15 (Narisawa et al., Am J Physiol Gastrointest Liver Physiol, 293:G1068, 2007), while IAP-KO mice lack this enzyme for their entire life. However, a variety of pathophysiological conditions can lead to altered IAP expression in adult WT animals, which may affect their intestinal flora. Accordingly, stool samples of hypothyroid and hyperthyroid mice were examined, since IAP is known to be silenced in hypothyroid animals and dramatically over-expressed in hyperthyroid animals (Hodin et al., Surgery, 120:138, 1996; Malo et al., Mol Endocrinol, 18:1941, 2004). For 32 weeks, groups of mice (n=5) were given water containing 0.05% propylthiouracil (PTU) in order to induce hypothyroidism by inhibiting both thyroid hormone biosynthesis and peripheral T4 deiodination (Cooper et al., Biochem Pharmacol, 33:3391, 1984). After 6 weeks of PTU treatment, one group received a daily i.p. injection of T3 (30 μg per 100 gm body weight, hyperthyroid) and the other group received a daily i.p. injection of normal saline (0.9% NaCl, hypothyroid) for 26 weeks (Hodin et al., Surgery, 120:138, 1996).
IAP activity was determined following the protocol as described by Baykov et al. (Anal Biochem, 171:266, 1988). Briefly, individual stool samples were homogenized in water (10 mg/100 μl), centrifuged and supernatant was collected. Then 25 μl of the stool supernatant (or aqueous cIAP solution) were mixed with 175 μl phosphatase assay reagent containing 5 mM of p-nitrophenyl phosphate (pNPP) followed by determining optical density at 405 nm after a specific time period when the samples usually turned yellow due to release of p-nitrophenol. Protein concentrations of stool supernatants were measured using a kit from Bio-Rad Laboratories (Hercules, Calif.). The specific activity of the enzyme, expressed as pmole pNPP hydrolyzed per minute per μg of protein, and CFU per gm of stool +/− SEM were determined and the results are shown in FIG. 3. […]

[H]/N=C(/N)N[C@H]1[C@H](O)[C@@H](O)[C@H](O[C@@H]2O[C@@H](C)[C@](O)(C=O)[C@H]2O[C@@H]2O[C@@H](CO)[C@H](O)[C@@H](O)[C@@H]2NC)[C@@H](N/C(N)=N\[H])[C@@H]1O [Streptomycin alone, streptomycin]
Bacterial growth in stools (gut microbiota [1]; 24 hours after discontinuation of streptomycin): no bacterial growth
Bacteria in the stool (gut microbiota [1]; Day 1): Absent
Bacteria in the stool (gut microbiota [1]; Day 2): Absent
Bacteria in the stool (gut microbiota [1]; Day 3): Absent
Bacteria in the stool (gut microbiota [1]; Day 4): Absent
Bacteria in the stool (gut microbiota [1]; Day 5): Absent
Bacteria in the stool (gut microbiota [1]; Day 6): Absent
Bacteria in the stool (gut microbiota [1]; Day 7): Absent
Bacteria in the stool (gut microbiota [1]; Day 8): Absent
Bacteria in the stool (gut microbiota [1]; Day 9): Absent
Bacteria in the stool (gut microbiota [1]; Day 10): Present
Time stools remained sterile (gut microbiota [1]; after streptomycin for 24 hours): up to nine
Day at which stools showed signs of the normal gastrointestinal tract flora (gut microbiota [1]; streptomycin for 24 hours): 10 days
Time to elimination of aerobic Gram-negative organisms in all animals [2]: ≤ 24 h

CC1(C)S[C@@H]2[C@H](NC(=O)[C@H](N)c3ccccc3)C(=O)N2[C@H]1C(=O)O [Ampicillin alone, ampicillin]
Bacteria in the stool (gut microbiota [3]; Day 1): Present
Bacteria in the stool (gut microbiota [3]; Day 2): Absent
Bacteria in the stool (gut microbiota [3]; Day 3): Absent
Bacteria in the stool (gut microbiota [3]; Day 4): Absent
Bacteria in the stool (gut microbiota [3]; Day 5): Absent
Bacteria in the stool (gut microbiota [3]; Day 6): Absent
Bacteria in the stool (gut microbiota [3]; Day 7): Absent
Bacteria in the stool (gut microbiota [3]; Day 8): Absent
Bacteria in the stool (gut microbiota [3]; Day 9): Absent
Bacteria in the stool (gut microbiota [3]; Day 10): Absent
Bacteria in the stool (gut microbiota [3]; Day 11): Absent
Bacteria in the stool (gut microbiota [3]; Day 12): Absent
Bacteria in the stool (gut microbiota [3]; Day 13): Absent
Bacteria in the stool (gut microbiota [3]; Day 14): Absent
Bacteria in the stool (gut microbiota [3]; Day 15): Absent
Bacteria in the stool (gut microbiota [3]; Day 16): Absent
Bacteria in the stool (gut microbiota [3]; Day 17): Absent
Bacteria in the stool (gut microbiota [3]; Day 18): Absent
Bacteria in the stool (gut microbiota [3]; Day 19): Absent
Bacteria in the stool (gut microbiota [3]; Day 20): Absent
Bacteria in the stool (gut microbiota [3]; Day 21): Absent
Bacteria in the stool (gut microbiota [3]; Day 22): Absent
Bacteria in the stool (gut microbiota [3]; Day 23): Absent
Bacteria in the stool (gut microbiota [3]; Day 24): Present
Day at which stools showed normal gut flora (gut microbiota [3]; ampicillin for 10 days): 24 days
No bacterial growth in stools until (gut microbiota [3]; ampicillin for 10 days): 23 days

N[C@@H](Cc1cc(I)c(Oc2ccc(O)c(I)c2)c(I)c1)C(=O)O [T3]
Stool IAP activity, higher compared to euthyroid animals (IAP; Week 32, hyperthyroid animals): approximately 7 fold
Stool IAP activity, higher compared to hypothyroid animals (IAP; Week 32, hyperthyroid animals): ~15 fold
IAP activity in stools (IAP; Weeks 12-32, daily i.p. T3): increased IAP activity
